Patent US4268630A, “Microbiological production of ketones from C3 -C6 alkanes” (priority 1979, dated 1981)

Assays:
[1] = system: secondary alcohol dehydrogenase; assay: Activity of purified yeast-derived secondary alcohol dehydrogenase; assay type: biochemical, Pichia sp. NRRL Y-11,328; conditions: for ability to act as electron acceptor/carrier: purified enzyme
[2] = system: cell-free secondary alcohol dehydrogenase (SADH) system; assay: Cofactor requirement of cell-free soluble extracts oxidizing 2-butanol; assay type: biochemical
Protocol: To prepare the cell-free secondary alcohol dehydrogenase (SADH) system, the washed cells were disrupted with a Wave Energy Ultrasonic Oscillator, Model W201 (Wave Energy System, Inc., Newtown, Pa.) and centrifuged at 20,000× g. for 30 minutes. […] The enzyme activity was measured with a fluorescence spectrophotometer (Perkin Elmer, Model MPF 44A) by following the formation of reduced NAD (EX 340 nm, Em 460 nm). The formation of reduced NAD was also followed with an absorption spectrophotometer at 340 nm. The assay system (3 ml.) contained: potassium phosphate buffer pH 7.0; 150 μmol.; NAD 1 μmol.; a given amount of enzyme preparation; and secondary alcohol 10 μmol. The reaction was started by the addition of substrate. One unit of enzyme activity represents the reduction of one μmole NAD per minute. Protein concentrations were determined by the Lowry method (J. Biol. Chem., 193: 255-275 (1951)).

[3] = system: Methylobacter capsulatus (Y, NRRL-B-11,201); assay: Conversion of n-alkanes to secondary alcohols by cell suspensions; assay type: cell-based; conditions: growth substrate Methane
Text: (§1) Both cell suspensions (particulate fraction) and cell-free particulate fraction of methane-grown methylotroph microorganisms are capable of catalyzing the conversion of C3 -C6 n-alkanes to the corresponding alcohols including secondary alcohols. The conditions for preparing the cell suspensions or the cell-free particulate fractions from methane-grown methylotroph microorganisms is the same as described above. The cell-free particulate fraction requires the presence of oxygen and NADH as an electron donor. […] Tables XVI and XVII show the conversion of C3 -C6 n-alkanes to the corresponding secondary alcohols using cell suspensions and cell-free particulate fractions, respectively, of methane-grown methylotroph microorganisms.

[4] = system: Methylococcus capsulatus (Texas, ATCC 19,069); assay: as above; assay type: cell-based; conditions: growth substrate Methane
Text: as §1

[5] = system: Methylomonas sp. (CRL-17, NRRL-B-11,209); assay: as above; assay type: cell-based; conditions: growth substrate Methane
Text: as §1

[6] = system: Methylosinus trichosporium (OB3b, NRRL-B-11,196); assay: as above; assay type: cell-based; conditions: growth substrate Methane
Text: as §1

[7] = system: Methylobacterium sp. (CRL-26, NRRL-B-11,208); assay: as above; assay type: cell-based; conditions: growth substrate Methane
Text: as §1

[8] = system: Methylosinus sp. (CRL-15, NRRL-B-11,202); assay: as above; assay type: cell-based; conditions: growth substrate Methane
Text: as §1

[9] = system: Methylococcus capsulatus Texas (ATCC 19069); assay: Oxidation of n-alkanes to methyl ketones by resting cell suspension; assay type: cell-based; conditions: cell suspension grown on methane
Protocol: (§2) The pH of the nutrient medium was adjusted to 7.0 by the addition of acid or base and 50 ml. samples of the nutrient medium were charged into a plurality of 300 ml. shaker flasks. The shaker flasks were inoculated with an inoculating loop of cells from an agar plate containing homogeneous colonies of the microorganisms on the plate (the purity of the isolates was confirmed by microscopic examination). The isolates had been maintained on methanol (0.4% V/V) agar plates or on agar plates under an atmosphere of methane and air having a 1:1 V/V gas ratio which had been transferred every two weeks. For growth on methanol, the medium was supplemented with 0.4% methanol. For growth on methane, the gaseous phase of the inoculated flasks was replaced with a gas mixture comprised on methane and air having a ratio of 1:1 on a V/V basis. The inoculated flasks were sealed air-tight and were incubated on a rotary shaker of orbital radius 2.5 cm. at 250 rpm and at 30° C. for two days until turbidity in the medium had developed. The cells were harvested by centrifugation at 10,000×g. at 4° C. for 30 minutes. The cell pellet was washed twice with a 0.05 M phosphate buffer at a pH of 7.0 (containing 0.02 M MgCl2). The washed cells were then suspended in a 0.05 M phosphate buffer at pH 7.0.
A 0.5 ml. sample of each washed cell suspension (2 mg. cells) was put into 10 ml. vials at 4° C. which were sealed with a rubber cap. The gaseous phase of the vials was removed with vacuum and then was replaced with a gas mixture of the substrate reactant (i.e., alkane or secondary alcohol) and oxygen at a 1:1 V/V ratio. (In the case of a liquid substrate, i.e., secondary alcohol, 10 μl of the substrate was put in the 10 ml. vials). […] Samples of product (1-3 μl) were withdrawn periodically with a microsyringe and the products were analyzed by gas chromatography (ionization flame detector column).

[10] = system: Methylosinus trichosporium OB3b NRRL B-11,196; assay: Conversion of n-alkanes to oxidation products by cell suspensions; assay type: cell-based; conditions: methane-grown cell suspension, pH 7.0
Protocol: (§11) ^(a) Cell-suspensions of methanegrown methylotroph microorganisms
(§12) indicated in 0.15 M phosphate buffer, pH 7.0 incubated in the alkanes as
(§13) indicated at 3° C. The oxidation products were determined by g.l.c

[11] = system: particulate P(40) fraction of Methylococcus capsulatus (Texas, ATCC 19,069); assay: Hydroxylation of n-alkanes to secondary alcohols by particulate P(40) fraction; assay type: biochemical
Text: as §1
(§3) ^(a) Particulate P(40) fraction was prepared as follows:
(§4) Cellsuspensions at 4° C. were disintegrated through a French
(§5) Pressure cell and centrifuged at 4000 × g. for 15 min. to remove
(§6) unbroken bacteria. The supernatant solution was then centrifuged at 40,00
(§7) × g. for 30 min. at 4° C. yielding the particulate P(40) and
(§8) soluble S(40) fractions. The products were identified by gas
(§9) chromatography and cochromatography with authentic standard.

[12] = system: particulate P(40) fraction of Methylosinus trichosporium (OB3b, NRRL-B-11,196); assay: as above; assay type: biochemical
Text: as §1, §3, §4, §5, §6, §7, §8, §9

[13] = target: particulate P(40) fraction of Methylosinus sp. (CRL-15, NRRL-B-11,202) (Methylosinus trichosporium, UniProt Q50541+Q9KX50+Q9KX51); assay: as above; assay type: biochemical
Text: as §1, §3, §4, §5, §6, §7, §8, §9

[14] = system: particulate P(40) fraction of Methylobacterium sp. (CRL-26, NRRL-B-11,222); assay: as above; assay type: biochemical
Text: as §1, §3, §4, §5, §6, §7, §8, §9

[15] = system: Methylosinus trichosporium OB3b (NRRL B-11,196); assay: Oxidation of n-alkanes to methyl ketones by resting cell suspension; assay type: cell-based; conditions: cell suspension grown on methane
Protocol: as §2, with “The shaker flasks were inoculated with an inoculating loop of cells from an agar plate containing homogeneous colonies of the microorganisms on the plate (the purity of the isolates was confirmed by microscopic examination).” left out
(§10) A 0.5 ml. sample of each washed cell suspension (2 mg. cells) was put into 10 ml. vials at 4° C. which were sealed with a rubber cap. The gaseous phase of the vials was removed with vacuum and then was replaced with a gas mixture of the substrate reactant (i.e., alkane or secondary alcohol) and oxygen at a 1:1 V/V ratio. (In the case of a liquid substrate, i.e., secondary alcohol, 10 μl of the substrate was put in the 10 ml. vials). The vials were then incubated at 30° C. on a rotary shaker at 300 rpm. Samples of product (1-3 μl) were withdrawn periodically with a microsyringe and the products were analyzed by gas chromatography (ionization flame detector column).

[16] = system: Methylobacter capsulatus Y (NRRL B-11,201); assay: as above; assay type: cell-based; conditions: cell suspension grown on methane
Protocol: as §2, with “The shaker flasks were inoculated with an inoculating loop of cells from an agar plate containing homogeneous colonies of the microorganisms on the plate (the purity of the isolates was confirmed by microscopic examination).” left out
as §10

[17] = system: Methylomonas methanica SI (NRRL B-11,199); assay: as above; assay type: cell-based; conditions: cell suspension grown on methane
Protocol: as §2, with “The shaker flasks were inoculated with an inoculating loop of cells from an agar plate containing homogeneous colonies of the microorganisms on the plate (the purity of the isolates was confirmed by microscopic examination).” left out
as §10

[18] = system: Methylosinus sporium 5 (NRRL B-11,197); assay: as above; assay type: cell-based; conditions: cell suspension grown on methane
Protocol: as §2, with “The shaker flasks were inoculated with an inoculating loop of cells from an agar plate containing homogeneous colonies of the microorganisms on the plate (the purity of the isolates was confirmed by microscopic examination).” left out
as §10

[19] = system: Methylocystis parvus OBBP (NRRL B-11,198); assay: as above; assay type: cell-based; conditions: cell suspension grown on methane
Protocol: as §2, with “The shaker flasks were inoculated with an inoculating loop of cells from an agar plate containing homogeneous colonies of the microorganisms on the plate (the purity of the isolates was confirmed by microscopic examination).” left out
as §10

[20] = system: Methylobacterium organophilum XX; assay: as above; assay type: cell-based; conditions: cell suspension grown on methane
Protocol: as §2, with “The shaker flasks were inoculated with an inoculating loop of cells from an agar plate containing homogeneous colonies of the microorganisms on the plate (the purity of the isolates was confirmed by microscopic examination).” left out
as §10

[21] = system: Methylomonas albus BG8 (NRRL B-11,200); assay: as above; assay type: cell-based; conditions: cell suspension grown on methane
Protocol: as §2, with “The shaker flasks were inoculated with an inoculating loop of cells from an agar plate containing homogeneous colonies of the microorganisms on the plate (the purity of the isolates was confirmed by microscopic examination).” left out
as §10

[22] = system: Methylococcus capsulatus CRL M1 NRRL B-11,219; assay: Conversion of n-alkanes to oxidation products by cell suspensions; assay type: cell-based; conditions: methane-grown cell suspension, pH 7.0
Protocol: as §11, §12, §13

particulate P(40) fraction of Methylosinus sp. (CRL-15, NRRL-B-11,202), sequence (Q9KX50 40-431): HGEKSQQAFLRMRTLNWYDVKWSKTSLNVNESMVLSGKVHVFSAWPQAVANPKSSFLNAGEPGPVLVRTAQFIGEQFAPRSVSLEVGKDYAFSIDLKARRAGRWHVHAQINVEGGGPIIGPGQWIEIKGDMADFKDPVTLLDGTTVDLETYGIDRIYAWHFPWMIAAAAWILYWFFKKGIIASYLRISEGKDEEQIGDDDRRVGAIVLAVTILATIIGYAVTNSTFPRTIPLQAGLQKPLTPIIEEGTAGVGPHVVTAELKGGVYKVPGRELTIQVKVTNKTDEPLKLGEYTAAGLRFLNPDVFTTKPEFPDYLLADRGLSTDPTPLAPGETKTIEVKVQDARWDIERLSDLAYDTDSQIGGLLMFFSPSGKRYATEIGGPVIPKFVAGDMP
particulate P(40) fraction of Methylosinus sp. (CRL-15, NRRL-B-11,202), sequence (Q50541 1-252): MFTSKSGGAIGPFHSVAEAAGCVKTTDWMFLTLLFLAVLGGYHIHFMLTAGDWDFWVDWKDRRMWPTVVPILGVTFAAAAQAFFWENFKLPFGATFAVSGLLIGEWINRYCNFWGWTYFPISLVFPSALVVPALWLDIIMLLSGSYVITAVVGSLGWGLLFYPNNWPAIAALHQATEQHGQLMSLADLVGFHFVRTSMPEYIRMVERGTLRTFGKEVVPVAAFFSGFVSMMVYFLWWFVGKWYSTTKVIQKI
particulate P(40) fraction of Methylosinus sp. (CRL-15, NRRL-B-11,202), sequence (Q9KX51 1-256): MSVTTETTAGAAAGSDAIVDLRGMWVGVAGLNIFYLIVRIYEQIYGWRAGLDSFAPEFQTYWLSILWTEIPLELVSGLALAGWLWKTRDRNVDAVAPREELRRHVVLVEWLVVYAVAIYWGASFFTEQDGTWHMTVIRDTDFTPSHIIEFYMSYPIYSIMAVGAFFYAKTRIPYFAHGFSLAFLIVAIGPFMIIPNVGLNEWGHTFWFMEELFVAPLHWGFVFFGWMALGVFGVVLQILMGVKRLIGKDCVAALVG

| SMILES | ability to act as electron acceptor/carrier [1] | effectiveness as cofactor for oxidation of 2-butanol [2] | Conversion Rate, n-alkane to secondary alcohol [4] | Conversion Rate, n-alkane to secondary alcohol [6] | Conversion Rate, n-alkane to secondary alcohol [7] | Conversion Rates, n-alkane to methyl ketone [9] | Conversion Rates, n-alkane to methyl ketone [15] | Conversion Rates, n-alkane to methyl ketone [16] | Conversion Rates, n-alkane to methyl ketone [17] | Conversion Rates, n-alkane to methyl ketone [19] | Conversion Rates, n-alkane to methyl ketone [20] | further results |
| --- | --- | --- | --- | --- | --- | --- | --- | --- | --- | --- | --- | --- |
| Cc1cc2nc3c(=O)[nH]c(=O)nc-3n(C[C@H](O)[C@H](O)[C@H](O)COP(=O)(O)OP(=O)(O)OC[C@H]3O[C@@H](n4cnc5c(N)ncnc54)[C@H](O)[C@@H]3O)c2cc1C [FAD, flavin adenine dinucleotide, reference compound] | could not act as electron carrier | not effective |  |  |  |  |  |  |  |  |  |  |
| N[C@@H](CCC(=O)N[C@@H](CS)C(=O)NCC(=O)O)C(=O)O [GSH, glutathione, reference compound] |  | not effective |  |  |  |  |  |  |  |  |  | inhibition of secondary alcohol dehydrogenase activity (in words) ([1]; primary alcohols tested at 10^-3 M): strongly inhibited |
| NC(=O)c1ccc[n+]([C@@H]2O[C@H](COP(=O)([O-])OP(=O)(O)OC[C@H]3O[C@@H](n4cnc5c(N)ncnc54)[C@H](OP(=O)(O)O)[C@@H]3O)[C@@H](O)[C@H]2O)c1 [NADP, reference compound] | could not act as electron carrier | not effective |  |  |  |  |  |  |  |  |  |  |
| O=C1C(Cl)=CC(=Nc2ccc(O)cc2)C=C1Cl [dichlorophenol iodophenol, 2,6-dichlorophenol indophenol, reference compound] | could not act as electron carrier | not effective |  |  |  |  |  |  |  |  |  |  |
| CCCC [n-Butane, n-butane] |  |  | 1.0 μmoles/hr/^5 mg. protein | 1.5 μmoles/hr/^5 mg. protein | 0.80 μmoles/hr/^5 mg. protein | 0.52 μmoles/hr/mg protein | 1.2 μmoles/hr/mg protein | 1.1 μmoles/hr/mg protein | 0.30 μmoles/hr/mg protein | 1.0 μmoles/hr/mg protein | 2.0 μmoles/hr/mg protein | Conversion Rate, n-alkane to secondary alcohol [3]: 0.09 μmoles/hr/^5 mg. protein; Conversion Rate, n-alkane to secondary alcohol [5]: 1.2 μmoles/hr/^5 mg. protein; Conversion Rate, n-alkane to secondary alcohol [8]: 1.2 μmoles/hr/^5 mg. protein; Conversion Rate to product 1-Butanol [10]: 0.3 μmoles/hr./mg./protein; Conversion Rate to product 2-Butanol [10]: 0.4 μmoles/hr./mg./protein; Conversion Rate to product 2-Butanone [10]: 0.1 μmoles/hr./mg./protein; Conversion Rate to product n-butanol [10]: 0.1 μmoles/hr./mg./protein; Conversion Rate, n-alkane to secondary alcohol [11]: 0.92 μmoles/hr/2.0mg. of protein; Conversion Rate, n-alkane to secondary alcohol [12]: 0.79 μmoles/hr/2.0mg. of protein; Conversion Rate, n-alkane to secondary alcohol [13]: 0.89 μmoles/hr/2.0mg. of protein; Conversion Rate, n-alkane to secondary alcohol [14]: 0.61 μmoles/hr/2.0mg. of protein; Conversion Rates, n-alkane to methyl ketone [18]: 0.58 μmoles/hr/mg protein; Conversion Rates, n-alkane to methyl ketone [21]: 0.60 μmoles/hr/mg protein; Conversion Rate to product 1-Butanol [22]: 0.4 μmoles/hr./mg./protein; Conversion Rate to product 2-Butanol [22]: 0.5 μmoles/hr./mg./protein; Conversion Rate to product 2-Butanone [22]: 0.2 μmoles/hr./mg./protein; Conversion Rate to product n-butanol [22]: 0.2 μmoles/hr./mg./protein |
| CCCCCC [n-Hexane, n-hexane] |  |  | 0.01 μmoles/hr/^5 mg. protein | 0.01 μmoles/hr/^5 mg. protein | 0.007 μmoles/hr/^5 mg. protein | 0.09 μmoles/hr/mg protein | 0.05 μmoles/hr/mg protein | 0.07 μmoles/hr/mg protein | 0.02 μmoles/hr/mg protein | 0.04 μmoles/hr/mg protein | 0.09 μmoles/hr/mg protein |  |
| CCCCC [n-Pentane, n-pentane] |  |  | 0.032 μmoles/hr/^5 mg. protein | 0.06 μmoles/hr/^5 mg. protein | 0.01 μmoles/hr/^5 mg. protein | 0.42 μmoles/hr/mg protein | 0.72 μmoles/hr/mg protein | 0.63 μmoles/hr/mg protein | 0.28 μmoles/hr/mg protein | 0.51 μmoles/hr/mg protein | 0.58 μmoles/hr/mg protein |  |
| C[n+]1c2ccccc2nc2ccccc21 [phenazine methosulfate, reference compound] | could not act as electron carrier | not effective |  |  |  |  |  |  |  |  |  |  |
